Several values for one entry are separate records, joined by “and”; a condition that tells them apart may be missing. Equal values may be shown once. Read-outs that look alike come from different tables or passages of the source.
How the values were obtained:
Giant foxtail (GIFT) = assay: whole plant or invertebrate; assay type: in vivo; details: in vivo
Corn [1] = test system: Corn
Shattercane (SHCA) = assay type: in vivo
Velvetleaf (VELE) = assay type: in vivo, Abutilon theophrasti
Corn [2] = assay: Greenhouse test Procedure VII: biocide and antidote in furrow, herbicide POE (Examples 39-42, 48-50, 56-58; Tables 38-41, 47-49, 55-57); assay type: in vivo; details: for % Inhibition Corn: C (COUNTER) + antidote in furrow
From the text: This procedure describes interaction among herbicide, biocide and antidote when the biocide and the antidote is applied to a soil furrow containing crop seed before emergence of the crop and the herbicide is applied after emergence of the crop and weeds. The soil and planting depth was described in Procedure IV. The containers for comparison, the biocide and antidote applications to soil furrows were described in Procedure VI. In this procedure, the seed beds of the first, second, third and fourth containers are covered by soil layers not treated with herbicide. The containers were then placed on a bench in a greenhouse and subirrigated as required for the duration of the test. The herbicide, dispersed or dissolved in water containing 0.25% v/v nonionic surfactant (X-77) was applied by a track sprayer (187 L/ha) to the emerged plants of the second, third and fourth containers about five days after planting. All treatments were run in duplicate. Plant response was observed according to Procedure IV. Variations in this procedure will be noted in the examples.
In this example, tests were conducted according to Procedure VII for the POE application of the herbicides following in-furrow application of COUNTER® 15G insecticide (BIOCIDE No. 1) and the antidote on the pre-planted test seeds. In this test, the herbicides were Nos. 1 (MON-12000), 10 (ALLY®) and #4 (HARMONY®) and the Antidote Nos. 1, 7, 12 and 33.
These in-furrow treatments comprised a 50-50 mix of blended granules of COUNTER with and without 5G granular antidotes at 7.4 + 7.4 mg/cm or 1.1 + 0.37 mg active ingredient (a.i.)/cm. The in-furrow initiation of the test was followed five (5) days later with POE application of the herbicides; observations were made eight (8) days later.
In another test, conducted simultaneously with that in Example 39, Herbicide Nos. 5 (chlorimuron ethyl, active ingredient in CLASSIC® herbicide), 7 (nicosulfuron, active ingredient in ACCENT® herbicide) and 15 (tribenuron methyl, active ingredient in EXPRESS® herbicide) were substituted as test herbicides.
In this example, using the same procedure as above, the following imidazolinone herbicides were used with the same insecticide/biocide and antidotes as above: Herb. No. 16 (imazaquin, a.i. in SCEPTER® herbicide; No. 19 (Code No. AC 222293, a.i. in ASSERT® herbicide); No. 6 (imazethapyr, a.i. in PURSUIT® herbicide and No. 18 (imazapyr, a.i. in ARSENAL® herbicide). Test results are shown in Table 40. Table 40
This example describes the testing of the above antidotes used in Examples 39-41 to safen negative synergy interactions between representative species of the class of herbicidal compounds identified as azolopyrimidine sulfonamides and COUNTER 15G. The same procedure used in the above examples was conducted in this test. In this test, the herbicides were formulated in 17% acetone and 83% water with 0.25% v/v X-77 surfactant.
In these tests (according to Procedure VII) the safeners in solution with acetone were applied in furrow to the soil, followed by COUNTER 15G granules at 227 g/305 m (8 oz./1000'). Applications were made in alternate rows in two separate 13.7 cm x 27.7 cm pans containing Dupo silt loam. Pans were seeded 1.3 cm deep, placed on benches in a greenhouse and subirrigated. BEACON was formulated in water with 0.25% v/v X-77 surfactant and applied by track sprayer at a rate of 187 L/Ha (20 gal/A). Weed species in this test were giant foxtail, shattercane and velvetleaf. The herbicide was applied five (5) days after PPI initiation and observation of test result (shown in Table 47) made eight (8) days later.
In Table 47 COUNTER 15G is abbreviated as "C" and the antidotes as "A" in the column headings which indicate the "C + A" ratios used in the tests. Control and COUNTER treatments are average of four (4) replications and COUNTER + Antidote treatments, average of 2 reps. […]

[3] = Antidote 4.48 + Biocide No. 1 8.96 Kg/Ha PPI, Herb. No. 8 0.07, 5 DAP, before herbicide application
[4] = Antidote 4.48 + Biocide No. 1 8.96 Kg/Ha PPI, Herb. No. 8 0.07 POE, 13 DAP
[5] = Antidote 4.48 + Biocide No. 1 8.96 Kg/Ha PPI, Herbicide No. 7 0.28 POE, 13 days after planting
[6] = Herb. […], 5 DAP, before herbicide application
[7] = Table 14: Herbicide No. 7 (ACCENT) 0.84 Kg/Ha POE + Biocide No. 2 8.96 Kg/Ha PPI + antidote 4.48 Kg/Ha PPI, 13 days after planting, 8 days after herbicide
[8] = […], 13 days after planting, 8 days after herbicide
[9] = […], observed 10 days after herbicide application

`Clc1cc(Cl)nc(-c2ccccc2)n1` [compound 31] was tested, and the “% Inhibition GIFT” value (Giant foxtail (GIFT)) was 55% and 80% and 85% and 75% and 95% and 60%, the “% Inhibition 5 DAP Corn” value (Corn [1]; [3]) was 10% and the “% Inhibition 13 DAP Corn” value (Corn [1]; [4]) was 75%. For the same molecule, the “% Inhibition Corn” value (Corn [1]; [5]) was 65%, the “% Inhibition 5 DAP Corn” value (Corn [1]; [6]) was 0% and the “% Inhibition Corn” value (Corn [1]; [7]) was 45%. The “% Inhibition Corn” value (Corn [1]; [8]) was 30%, the “% Inhibition Corn” value (Corn [1]; [9]) was 70% and the “% Inhibition 5 DAP Corn” value (Corn [1]; in vivo) was 15%. The “% Inhibition 13 DAP Corn” value (Corn [1]; in vivo) was 65%, the “activity in reducing corn injury” value (Corn [1]; primisulfuron POE + biocides PPI, Tables 8-10) was “either inactive or weakly active” and the “% Inhibition 5 DAP SHCA” value (Shattercane (SHCA); [3]) was 0%. The “% Inhibition 13 DAP SHCA” value (Shattercane (SHCA); [4]) was 80%, the “% Inhibition SHCA” value (Shattercane (SHCA); [5]) was 75% and the “% Inhibition 5 DAP SHCA” value (Shattercane (SHCA); [6]) was 0%. For the same molecule, the “% Inhibition SHCA” value (Shattercane (SHCA); [7]) was 75%, the “% Inhibition SHCA” value (Shattercane (SHCA); [8]) was 85% and the “% Inhibition SHCA” value (Shattercane (SHCA); [9]) was 65%. For the same molecule, the “% Inhibition 5 DAP SHCA” value (Shattercane (SHCA); in vivo) was 20%, the “% Inhibition 13 DAP SHCA” value (Shattercane (SHCA); in vivo) was 80% and the “% Inhibition SHCA” value (Shattercane (SHCA); in vivo) was 85% and 50% and 60% and 45%. The “% Inhibition 5 DAP VELE” value (Velvetleaf (VELE); [3]) was 0%, the “% Inhibition 13 DAP VELE” value (Velvetleaf (VELE); [4]) was 85% and the “% Inhibition VELE” value (Velvetleaf (VELE); [5]) was 65%. For the same molecule, the “% Inhibition 5 DAP VELE” value (Velvetleaf (VELE); [6]) was 0%, the “% Inhibition 13 DAP VELE” value (Velvetleaf (VELE); Herb. […], 13 DAP, after herbicide application) was 95% and the “% Inhibition VELE” value (Velvetleaf (VELE); [7]) was 65%. The “% Inhibition VELE” value (Velvetleaf (VELE); [8]) was 65%, the “% Inhibition VELE” value (Velvetleaf (VELE); [9]) was 80% and the “% Inhibition 5 DAP VELE” value (Velvetleaf (VELE); in vivo) was 0%. The “% Inhibition 13 DAP VELE” value (Velvetleaf (VELE); in vivo) was 85%.

In the case of `CC1CN(C(=O)C(Cl)Cl)C(C)(C)O1` (stereo not shown) [compound 8], the “% Inhibition GIFT” value (Giant foxtail (GIFT)) is reported as 45% and 50% and 85% and 65% and 70% and 90% and 60%, the “% Inhibition 5 DAP Corn” value (Corn [1]; [3]) is reported as 20% and the “% Inhibition 13 DAP Corn” value (Corn [1]; [4]) is reported as 35%. For the same molecule, the “% Inhibition Corn” value (Corn [1]; [5]) was 35%, the “% Inhibition 5 DAP Corn” value (Corn [1]; [6]) was 0% and the “% Inhibition Corn” value (Corn [1]; [7]) was 20%. For the same molecule, the “% Inhibition Corn” value (Corn [1]; [8]) was 20%, the “% Inhibition Corn” value (Corn [1]; [9]) was 45% and the “% Inhibition 5 DAP Corn” value (Corn [1]; in vivo) was 20%. The “% Inhibition 13 DAP Corn” value (Corn [1]; in vivo) was 30%, the “% Inhibition Corn” value (Corn [1]; in vivo) was 30% and 55% and the “% Inhibition Corn” value (Corn [2]; C:A Ratio 20, ACCENT 0.56 Kg/Ha POE) was 10%. For the same molecule, the “% Inhibition Corn” value (Corn [2]; C:A Ratio 20, BEACON 0.28 Kg/Ha POE) was 0%, the “% Inhibition Corn” value (Corn [2]; C:A Ratio 40, ACCENT 0.56 Kg/Ha POE) was 15% and the “% Inhibition Corn” value (Corn [2]; C:A Ratio 40, BEACON 0.28 Kg/Ha POE) was 0%. For the same molecule, the “% Inhibition Corn” value (Corn [2]; C:A Ratio 80, ACCENT 0.56 Kg/Ha POE) was 20%, the “% Inhibition Corn” value (Corn [2]; C:A Ratio 80, BEACON 0.28 Kg/Ha POE) was 5% and the “% Inhibition Corn” value (Corn [2]; C:A Ratio 160, ACCENT 0.56 Kg/Ha POE) was 40%. The “% Inhibition Corn” value (Corn [2]; C:A Ratio 160, BEACON 0.28 Kg/Ha POE) was 15%, the “% Corn Inhibition C:A Ratios 5” value (Corn [2]; Herbicide No. 8 0.28 Kg/Ha POE + COUNTER 15G 227 g/305 m + antidote in furrow, C:A ratio 5) was 3% and the “% Corn Inhibition C:A Ratios 10” value (Corn [2]; Herbicide No. 8 0.28 Kg/Ha POE + COUNTER 15G 227 g/305 m + antidote in furrow, C:A ratio 10) was 5%. For the same molecule, the “% Corn Inhibition C:A Ratios 20” value (Corn [2]; Herbicide No. 8 0.28 Kg/Ha POE + COUNTER 15G 227 g/305 m + antidote in furrow, C:A ratio 20) was 5%, the “% Corn Inhibition C:A Ratios 40” value (Corn [2]; Herbicide No. 8 0.28 Kg/Ha POE + COUNTER 15G 227 g/305 m + antidote in furrow, C:A ratio 40) was 3% and the “% Corn Inhibition C:A Ratios 80” value (Corn [2]; Herbicide No. 8 0.28 Kg/Ha POE + COUNTER 15G 227 g/305 m + antidote in furrow, C:A ratio 80) was 5%. The “% Corn Inhibition C:A Ratios 160” value (Corn [2]; Herbicide No. 8 0.28 Kg/Ha POE + COUNTER 15G 227 g/305 m + antidote in furrow, C:A ratio 160) was 10%, the “% Inhibition 5 DAP SHCA” value (Shattercane (SHCA); [3]) was 0% and the “% Inhibition 13 DAP SHCA” value (Shattercane (SHCA); [4]) was 90%. For the same molecule, the “% Inhibition SHCA” value (Shattercane (SHCA); [5]) was 60%, the “% Inhibition SHCA” value (Shattercane (SHCA); [7]) was 85% and the “% Inhibition SHCA” value (Shattercane (SHCA); [8]) was 90%. For the same molecule, the “% Inhibition SHCA” value (Shattercane (SHCA); [9]) was 60%, the “% Inhibition 5 DAP SHCA” value (Shattercane (SHCA); in vivo) was 30% and the “% Inhibition 13 DAP SHCA” value (Shattercane (SHCA); in vivo) was 80%. For the same molecule, the “% Inhibition 5 DAP VELE” value (Velvetleaf (VELE); [3]) was 10%, the “% Inhibition 13 DAP VELE” value (Velvetleaf (VELE); [4]) was 85% and the “% Inhibition VELE” value (Velvetleaf (VELE); [5]) was 65%. For the same molecule, the “% Inhibition 5 DAP VELE” value (Velvetleaf (VELE); [6]) was 0%, the “% Inhibition VELE” value (Velvetleaf (VELE); [7]) was 70% and the “% Inhibition VELE” value (Velvetleaf (VELE); [8]) was 70%. For the same molecule, the “% Inhibition VELE” value (Velvetleaf (VELE); [9]) was 75%, the “% Inhibition 5 DAP VELE” value (Velvetleaf (VELE); in vivo) was 0% and the “% Inhibition 13 DAP VELE” value (Velvetleaf (VELE); in vivo) was 90%.

— patent EP0565593B1, “REDUCING PESTICIDAL INTERACTIONS IN CROPS” (priority 1990, dated 1992)
